According to publication PMC10582325 (Frontiers in Pharmacology, 2023):

Tests used:
[1] = Lung and spleen tissue exposure in BALB/c mice
CYP1A2 = target: T1, CYP1A2 (Homo sapiens, UniProt P05177); assay: Direct CYP inhibition in human liver microsomes with marker probe substrates; settings: read-out: Inhibition, IC50; HLM, CYP1A2 probe substrate
T1 sequence (P05177 1-516): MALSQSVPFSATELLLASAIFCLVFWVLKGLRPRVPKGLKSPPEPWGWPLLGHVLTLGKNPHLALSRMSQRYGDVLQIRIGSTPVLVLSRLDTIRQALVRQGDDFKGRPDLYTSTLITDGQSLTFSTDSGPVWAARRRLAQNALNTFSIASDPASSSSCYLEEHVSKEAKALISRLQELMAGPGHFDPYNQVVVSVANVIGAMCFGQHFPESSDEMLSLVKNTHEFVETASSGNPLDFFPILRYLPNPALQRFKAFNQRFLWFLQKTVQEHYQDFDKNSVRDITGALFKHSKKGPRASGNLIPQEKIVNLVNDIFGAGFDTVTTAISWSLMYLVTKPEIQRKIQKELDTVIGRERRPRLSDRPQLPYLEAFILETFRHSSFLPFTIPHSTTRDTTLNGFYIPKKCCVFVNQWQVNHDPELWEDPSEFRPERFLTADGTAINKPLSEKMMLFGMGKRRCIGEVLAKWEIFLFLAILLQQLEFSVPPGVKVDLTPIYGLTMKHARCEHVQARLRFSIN

CYP2J2 = target: T2, CYP2J2 (Homo sapiens, UniProt P51589); assay: as above; assay type: in vitro ADME; settings: HLM, CYP2J2 probe substrate
T2 sequence (P51589 1-502): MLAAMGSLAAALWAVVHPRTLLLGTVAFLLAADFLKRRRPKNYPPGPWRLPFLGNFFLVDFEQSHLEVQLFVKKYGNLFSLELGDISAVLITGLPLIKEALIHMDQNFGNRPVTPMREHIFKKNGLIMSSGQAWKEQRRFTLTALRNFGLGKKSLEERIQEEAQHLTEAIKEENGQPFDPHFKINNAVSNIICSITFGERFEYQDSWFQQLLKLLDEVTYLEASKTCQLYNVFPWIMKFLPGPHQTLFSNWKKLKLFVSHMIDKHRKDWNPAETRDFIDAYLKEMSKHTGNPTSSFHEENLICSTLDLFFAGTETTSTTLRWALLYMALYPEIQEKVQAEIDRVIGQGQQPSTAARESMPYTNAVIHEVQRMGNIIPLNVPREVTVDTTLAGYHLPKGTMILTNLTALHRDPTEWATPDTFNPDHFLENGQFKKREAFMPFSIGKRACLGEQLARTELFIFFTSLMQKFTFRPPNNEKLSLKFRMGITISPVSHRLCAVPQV
Procedure: (§1) The direct inhibition potential of TBI-166 against P450 was determined using the human marker probe reactions for P450 enzymes in human liver microsomes. Briefly, substrate concentrations in the incubation mixture were selected to be around their Km. Eight different concentrations of TBI-166 (from 0.05 to 10 μM) were incubated in human liver microsomes respectively. Incubations were carried out at 37°C in a shaking water bath. The incubation mixtures contained HLM (0.5 mg/mL), probe substrates in the presence or absence of TBI-166 in PBS (100 mM, containing MgCl2 3 mM, pH 7.4). The reactions were initiated by adding NADPH (1 mM) after preincubated the above mixtures at 37°C for 5 min. Positive controls without TBI-166 were included simultaneously. Stock solutions of the test drugs were prepared in acetonitrile. All measurements were performed in triplicate. […] Protein was removed by centrifugation at 4,000 g for 20 min and analyzed by LC-MS/MS ([Li Z. et al., 2019]).
(§2) Metabolites of probe substrates were separated using a Gemini C18 column (2.1 × 50 mm, i. d, […] particle size; United States). […] The analytes and internal standard were detected by positive ion spray in the multiple-reaction-monitoring modes (MRM).
(§3) IC50 values were calculated using nonlinear regression analysis with GraphPad Prism 7 (GraphPad Software Inc., San Diego, CA). […] All data are expressed as the mean ± SD. […]

CYP2B6 = target: T3, CYP2B6 (Homo sapiens, UniProt P20813); assay: as above; assay type: in vitro ADME; settings: HLM, CYP2B6 probe substrate
T3 sequence (P20813 1-491): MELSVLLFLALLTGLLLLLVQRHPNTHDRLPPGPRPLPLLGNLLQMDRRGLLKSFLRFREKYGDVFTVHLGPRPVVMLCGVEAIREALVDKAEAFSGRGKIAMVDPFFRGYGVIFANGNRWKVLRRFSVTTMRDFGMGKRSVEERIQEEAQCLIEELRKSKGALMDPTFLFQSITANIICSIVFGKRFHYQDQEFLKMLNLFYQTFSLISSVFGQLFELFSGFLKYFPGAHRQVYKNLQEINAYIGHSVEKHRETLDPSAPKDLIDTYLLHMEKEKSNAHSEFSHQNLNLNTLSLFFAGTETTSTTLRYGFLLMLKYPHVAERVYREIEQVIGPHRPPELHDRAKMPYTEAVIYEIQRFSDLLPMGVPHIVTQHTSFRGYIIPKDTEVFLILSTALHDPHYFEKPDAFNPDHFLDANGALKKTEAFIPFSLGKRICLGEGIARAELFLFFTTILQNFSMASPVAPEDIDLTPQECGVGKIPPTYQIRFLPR
Procedure: as §1, §2, §3

COc1ncccc1Nc1cc2nc3ccccc3n(-c3ccc(OC(F)(F)F)cc3)c-2cc1=NC1CCC(OC)CC1 (stereo not shown) [TBI-166, Pyrifazimine]
AUC(0-t) ([1]; Lung, BDQ + TBI-166 group): 321.07 ± 52.91 µg·h/g | tissue-to-plasma ratio (Kp) ([1]; Lung, BDQ + TBI-166 group): 5.17 | AUC(0-t) ([1]; Lung, TBI-166 group): 378.66 ± 104.67 µg·h/g | tissue-to-plasma ratio (Kp) ([1]; Lung, TBI-166 group): 5.49 | AUC(0-t) ([1]; Spleen, BDQ + TBI-166 group): 483.54 ± 94.75 µg·h/g | tissue-to-plasma ratio (Kp) ([1]; Spleen, BDQ + TBI-166 group): 7.79 | AUC(0-t) ([1]; Spleen, TBI-166 group): 296.09 ± 27.68 µg·h/g | tissue-to-plasma ratio (Kp) ([1]; Spleen, TBI-166 group): 4.29 | exposure (AUC0-t) with vs without coadministration ([1]; lungs): similar | increase of exposure (AUC0-t) after coadministration of BDQ with TBI-166 ([1]; spleens): 1.5 fold | IC50 (CYP1A2): 0.55 µM | IC50 (CYP2J2): > 50 µM | IC50 (CYP2B6): 4.35 µM
